Reference: ChEMBL document CHEMBL3046180, “Antifungal activity of some diaryl ethers” (2007)
Calls of active or inactive are those of the source. The rule behind the calls is not given here.

How the values were obtained:
[1] = system: Bipolaris sorokiniana; experiment: Growth inhibition of Bipolaris sorokiniana at 50 ug/ml after 4 days by poisoned food technique; type: functional; settings: 96 h, read-out: GI
[2] = system: Bipolaris sorokiniana; experiment: Growth inhibition of Bipolaris sorokiniana at 500 ug/ml after 4 days by poisoned food technique; type: functional; settings: 96 h, read-out: GI
[3] = system: Alternaria brassicae; experiment: Growth inhibition of Alternaria brassicae at 50 ug/ml after 4 days by poisoned food technique; type: functional; settings: 96 h, read-out: GI
[4] = system: Alternaria brassicae; experiment: Growth inhibition of Alternaria brassicae at 500 ug/ml after 4 days by poisoned food technique; type: functional; settings: 96 h, read-out: GI
[5] = system: Fusarium oxysporum f. sp. cucumerinum; experiment: Growth inhibition of Fusarium oxysporum f. sp. cucumerinum at 50 ug/ml after 4 days by poisoned food technique; type: functional; settings: 96 h, read-out: GI
[6] = system: Fusarium oxysporum f. sp. cucumerinum; experiment: Growth inhibition of Fusarium oxysporum f. sp. cucumerinum at 500 ug/ml after 4 days by poisoned food technique; type: functional; settings: 96 h, read-out: GI
[7] = system: Fusarium oxysporum f. sp. vasinfectum; experiment: Growth inhibition of Fusarium oxysporum f. sp. vasinfectum at 50 ug/ml after 4 days by poisoned food technique; type: functional; settings: 96 h, read-out: GI
[8] = system: Fusarium oxysporum f. sp. vasinfectum; experiment: Growth inhibition of Fusarium oxysporum f. sp. vasinfectum at 500 ug/ml after 4 days by poisoned food technique; type: functional; settings: 96 h, read-out: GI
[9] = system: Pyricularia oryzae; experiment: Growth inhibition of Magnaporthe oryzae at 50 ug/ml after 4 days by poisoned food technique; type: functional; settings: 96 h, read-out: GI
[10] = system: Pyricularia oryzae; experiment: Growth inhibition of Magnaporthe oryzae at 500 ug/ml after 4 days by poisoned food technique; type: functional; settings: 96 h, read-out: GI
[11] = system: Alternaria alternata; experiment: Growth inhibition of Alternaria alternata at 50 ug/ml after 4 days by poisoned food technique; type: functional; settings: 96 h, read-out: GI
[12] = system: Fusarium graminearum; experiment: Growth inhibition of Fusarium graminearum at 500 ug/ml after 4 days by poisoned food technique; type: functional; settings: 96 h, read-out: GI
[13] = system: Alternaria alternata; experiment: Growth inhibition of Alternaria alternata at 500 ug/ml after 4 days by poisoned food technique; type: functional; settings: 96 h, read-out: GI
[14] = system: Fusarium graminearum; experiment: Growth inhibition of Fusarium graminearum at 50 ug/ml after 4 days by poisoned food technique; type: functional; settings: 96 h, read-out: GI
[15] = system: Fusarium graminearum; experiment: Antifungal activity against Fusarium graminearum assessed as mycelial growth inhibition at 250 to 500 ug/ml after 4 days by poisoned food technique; type: functional, organism-based

| SMILES | inhibition of growth at 50 µg/mL [1] [%] | inhibition of growth at 500 µg/mL [2] [%] | inhibition of growth at 50 µg/mL [3] [%] | inhibition of growth at 500 µg/mL [4] [%] | inhibition of growth at 50 µg/mL [5] [%] | inhibition of growth at 500 µg/mL [6] [%] | inhibition of growth at 50 µg/mL [7] [%] | inhibition of growth at 500 µg/mL [8] [%] | inhibition of growth at 50 µg/mL [9] [%] | inhibition of growth at 500 µg/mL [10] [%] | inhibition of growth at 50 µg/mL [11] [%] | inhibition of growth at 500 µg/mL [12] [%] | inhibition of growth at 500 µg/mL [13] [%] | inhibition of growth at 50 µg/mL [14] [%] | growth inhibition (GI) [15] |
| --- | --- | --- | --- | --- | --- | --- | --- | --- | --- | --- | --- | --- | --- | --- | --- |
| Cc1cc(O)no1 [HYMEXAZOL] | 100 | 37.1 | 89 | 100 | 19.8 | 91.5 | 45.8 | 92.3 | 66.4 | 100 | 82.3 | 99.4 | 100 | 38.7 |  |
| N#Cc1ccccc1Oc1ccc(Cl)cc1 | 68 | 56.2 | 56.8 | 74.1 | 48.8 | 54.3 | 52.5 | 57 | 59.7 | 77.7 | 55.9 | 83.7 | 78 | 79.6 |  |
| O=[N+]([O-])c1ccccc1Oc1ccc(Cl)cc1 | 79.9 | 40.9 | 61 | 74.3 | 44.9 | 50.2 | 40.3 | 47.5 | 48.3 | 69 | 51.8 | 73.6 | 71.7 | 59.7 |  |
| O=[N+]([O-])c1ccc(Oc2ccc(Cl)cc2)cc1 | 78.1 | 74.3 | 42.7 | 47.2 | 34.1 | 38 | 41.4 | 43.4 | 47.6 | 63.8 | 47.4 | 66.8 | 61.3 | 63 |  |
| Cc1cccc(Oc2ccc([N+](=O)[O-])cc2)c1 | 44.4 | 32 | 37.3 | 52.8 | 57.9 | 64.6 | 65.1 | 74.3 | 39.2 | 60.3 | 48.4 | 92.4 | 61.2 | 62.8 |  |
| Cc1cccc(Oc2ccccc2[N+](=O)[O-])c1 | 85.5 | 58.5 | 58.9 | 73.9 | 50.2 | 46 | 53.2 | 46.7 | 56.3 | 82.8 | 49 | 70.1 | 74.5 | 38.8 |  |
| CC(C)(C)c1ccc(Oc2ccc([N+](=O)[O-])cc2)cc1 | 21.6 | 23.5 | 32 | 32 | 3.6 | 10.3 | 14.1 | 67.7 | 32 | 40.4 | 25.5 | 56 | 27.7 | 55.6 |  |
| O=[N+]([O-])c1ccc(Oc2ccc([N+](=O)[O-])cc2)cc1 [4,4'-OXYBIS(NITROBENZENE)] | 20.4 | 16.7 | 36.8 | 75.2 | 38 | 50.9 | 57.6 | 63.6 | 1.9 | 36.6 | 15 | 3.1 | 19.8 | 13.6 |  |
| O=[N+]([O-])c1ccc(Oc2ccccc2Cl)cc1 | 89.5 | 66 | 36 | 65.3 | 38.8 | 75.5 | 47.5 | 55.6 | 47.8 | 77.5 | 60.4 | 92.8 | 81.9 | 79.5 |  |
| O=[N+]([O-])c1ccccc1Oc1ccccc1 | 95 | 30.2 | 79 | 87.9 | 55.6 | 65.3 | 70.1 | 70.9 | 58 | 92 | 62.2 | 94 | 95.3 | 64.9 | Active |
| CC(C)(C)c1ccc(Oc2ccccc2C#N)cc1 | 42.8 | 38.4 | 43.5 | 53.3 | 20.4 | 33.3 | 20.1 | 44.3 | 43.7 | 43.1 | 35.8 | 56 | 51 | 38.3 |  |
| O=[N+]([O-])c1ccc(Oc2ccccc2[N+](=O)[O-])cc1 [2,4'-OXYBIS(NITROBENZENE)] | 42.2 | 35.3 | 8.5 | 49.6 | 9.3 | 33.3 | 19.3 | 42.7 | 31.4 | 47.1 | 49.3 | 68.7 | 56.3 | 66.2 |  |
| CC(C)(C)c1ccc(Oc2ccccc2[N+](=O)[O-])cc1 | 50.3 | 38.7 | 38.4 | 37.4 | 8.4 | 17.3 | 19.3 | 11.2 | 37.9 | 44.8 | 33 | 52.7 | 53.3 | 38.8 |  |
| O=[N+]([O-])c1ccccc1Oc1ccccc1Cl | 88.7 | 71.1 | 64.5 | 76.2 | 48 | 53.8 | 59.7 | 58 | 51 | 71.6 | 52.8 | 78.6 | 74 | 65.2 |  |
| O=[N+]([O-])c1ccc(Oc2ccccc2)cc1 | 87.2 | 73 | 55.5 | 76 | 61.2 | 72.9 | 81.8 | 83.4 | 48 | 81.9 | 66.8 | 87.4 | 83.8 | 71.6 |  |
